In patent US20060247260A1, “Bis (hetero) aryl carboxamide derivatives for use as PG12 antagonists” (BAYER HEALTHCARE AG, priority 2003, published 2006):

Target: T1, PGI2 receptor (Homo sapiens, UniProt P43119)
T1 construct: host or cells: HEL 92.1.7 human erythroleukemia cells (whole cells)
Test: PGI2 receptor binding/cAMP in HEL cells (in vitro activity grade)
Conditions: compounds of purity about 40 to 90%
Protocol: [Measurement of the [^3H]-Iloprost Binding to HEL Cells] (Assay 1) A human erythloleukemia cell line, HEL 92.1.7, was purchased from American Type Culture Correction and maintained in RPMI-1640 medium (Gibco BRL) supplemented with 10% fetal calf serum (FCS), 2 mM glutamine, 4.5 g/L glucose, 10 mM Hepes, 1 mM sodium pyruvate, 100 U/ml penicillin, and 100 μg/ml streptomycin in a humidified 5% CO2 atmosphere at 37° C. Cells were collected with centrifugation and washed with binding assay buffer (BAB: 50 mM Tris-HCl, 5 mM MgCl2 (pH 7.5)). Cells were suspended at the density of 6.25×10^6 cells/ml in BAB, and one million cells in 160 μl aliquot of cell suspension were put in a well of 96 well plate (Falcon). Then, 20 μl of compound solution, 100 μM of iloprost (for non-specific binding), or buffer alone (total binding), diluted with 1% DMSO in BAB was added. Finally, another 20 μl containing [^3H]-iloprost (0.02 μCi, 0.5-1 pmol) in BAB was added and incubated at room temperature for 30 min with a gentle shaking. Cell suspension was then transferred to a well of MultiScreen plate with GF/C glass filters (Millipore) to harvest cells. Cells were washed twice with 200 μl of ice-cold BAB and the plate was kept at 55° C. for 30 min to dry filters. The filter in the well was punched out to a counting tube and 2 ml of Ultima Gold XR Packard) was added. [^3H]-radio activity in the filter was measured by a liquid scintillation counter (Beckman, USA). [Iloprost-Induced cAMP Production Assay in HEL Cells] (Assay 2) HEL cells were collected with centrifugation and washed with cAMP assay buffer (CAB: Hank's balanced salt solution, 17 mM Hepes, 0.1% bovine serum albumin, 1 mM IBMX, 0.4% DMSO, and 1 mM L-ascorbic acid sodium salt (pH 7.4)). Cells were suspended at the density of 2.5×10^5 cells/ml in CAB, and twenty thousand cells in 80 μl aliquot of cell suspension were put in a well of 96 well plate (Falcon). Then, 10 μl of compound solution diluted with 1% DMSO in CAB or buffer alone was added. The plate was incubated at 37° C. for 30 min. Then, another 10 μl containing 100 nM iloprost in CAB or buffer alone was added and further incubated at 37° C. for 30 min. cAMP content in the well was measured by, a cAMP ELISA kit (Applied Biosystems, USA). The data corresponds to the compounds as yielded by solid phase synthesis and thus to levels of purity of about 40 to 90%. For practical reasons, the compounds are grouped in three classes of activity as follows: In vitro activity grade=A≦0.1 μM<B≦1 μM<C

T1 sequence (P43119 whole entry): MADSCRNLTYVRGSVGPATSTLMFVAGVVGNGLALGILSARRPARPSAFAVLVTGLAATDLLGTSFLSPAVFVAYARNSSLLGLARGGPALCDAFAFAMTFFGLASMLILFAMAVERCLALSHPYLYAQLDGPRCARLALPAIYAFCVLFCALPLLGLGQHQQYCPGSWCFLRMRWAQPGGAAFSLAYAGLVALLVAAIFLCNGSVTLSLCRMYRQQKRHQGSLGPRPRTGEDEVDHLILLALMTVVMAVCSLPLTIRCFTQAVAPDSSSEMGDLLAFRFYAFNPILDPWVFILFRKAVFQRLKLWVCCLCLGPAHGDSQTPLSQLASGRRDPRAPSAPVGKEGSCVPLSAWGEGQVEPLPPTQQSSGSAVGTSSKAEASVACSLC

Row | SMILES | In vitro activity grade
1 | O=C(NC(Cc1ccccc1)C(=O)O)c1cc(-c2ccc(OCc3ccccc3)cc2)[nH]n1 (centres unmarked) [Example 1-1, 2-{[5-(4-Benzyloxyphenyl)-1H-pyrazole-3-carbonyl]amino}-3-phenylpropionic acid] | A (A≦0.1 μM)
2 | O=C(NC(Cc1ccccc1)C(=O)O)c1cc(-c2ccc(OCc3ccccc3)cc2)on1 (centres unmarked) [Example 1-2, 2-{[5-(4-Benzyloxyphenyl)isoxazole-3-carbonyl]amino}-3-phenyl-propionic acid] | A (A≦0.1 μM)
3 | O=C(NC(Cc1ccccc1)C(=O)O)c1ccc(-c2ccc(OCc3ccccc3)cc2)s1 (centres unmarked) [Example 2-1, 2-{[5-(4-Benzyloxyphenyl)thiophene-2-carbonyl]amino}-3-phenyl-propionic acid] | A (A≦0.1 μM)
4 | O=C(NC(Cc1ccccc1)C(=O)O)c1ccc(-c2ccc(OCc3ccccc3)cc2)cc1 (centres unmarked) [Example 3-1, 2-[(4′-Benzyloxy-biphenyl-4-carbonyl)-amino]-3-phenyl-propionic acid] | A (A≦0.1 μM)
5 | O=C(NC(Cc1ccccc1)C(=O)O)c1ccc(-c2ccc(OCc3ccccc3)cc2)nc1 (centres unmarked) [Example 4-1, 2-{[6-(4-benzyloxy-phenyl)-pyridine-3-carbonyl]-amino}-3-phenyl-propionic acid] | A (A≦0.1 μM)
6 | O=C(NC(Cc1ccccc1)C(=O)O)c1ccc(-c2cnc(OCc3ccccc3)nc2)cc1 (centres unmarked) [Example 5-1, 2-[4-(2-Benzyloxypyrimidin-5-yl)benzoylamino]-3-phenylpropionic acid] | A (A≦0.1 μM)
7 | O=C(NC(Cc1ccccc1)C(=O)[O-])c1ccc(-c2ccc(OCc3ccccc3)nc2)cc1.[Na+] (centres unmarked) [Example 6-1, Sodium 2-[4-(6-benzyloxypyridin-3-yl)benzoylamino]-3-phenylpropionate] | A (A≦0.1 μM)
8 | Cc1cccc(COc2ccc(-c3ccc(C(=O)NC(Cc4ccccc4)C(=O)O)cc3)cc2)c1 (centres unmarked) [Example 8-1, 2-{[4′-(3-Methylbenzyloxy)biphenyl-4-carbonyl]amino}-3-phenylpropionic acid] | A (A≦0.1 μM)
9 | O=C(NC(Cc1ccccc1)C(=O)O)c1ccc(-c2ccc(OCc3ccc([N+](=O)[O-])cc3)cc2)cc1 (centres unmarked) [Example 8-2] | B (0.1 μM<B≦1 μM)
10 | O=C(NC(Cc1ccccc1)C(=O)O)c1ccc(-c2ccc(OCc3ccccc3F)cc2)cc1 (centres unmarked) [Example 8-3] | A (A≦0.1 μM)
11 | O=C(NC(Cc1ccccc1)C(=O)O)c1ccc(-c2ccc(OCc3cccc(F)c3)cc2)cc1 (centres unmarked) [Example 8-4] | A (A≦0.1 μM)
12 | O=C(NC(Cc1ccccc1)C(=O)O)c1ccc(-c2ccc(OCc3ccc(F)cc3)cc2)cc1 (centres unmarked) [Example 8-5] | A (A≦0.1 μM)
13 | O=C(NC(Cc1ccccc1)C(=O)O)c1ccc(-c2ccc(OCc3ccc(F)c(F)c3)cc2)cc1 (centres unmarked) [Example 8-6] | A (A≦0.1 μM)
14 | O=C(NC(Cc1ccccc1)C(=O)O)c1ccc(-c2ccc(OCc3c(Cl)cccc3Cl)cc2)cc1 (centres unmarked) [Example 8-7] | A (A≦0.1 μM)
15 | O=C(NC(Cc1ccccc1)C(=O)O)c1ccc(-c2ccc(OCc3cc(Cl)cc(Cl)c3)cc2)cc1 (centres unmarked) [Example 8-8] | C (1 μM<C)
16 | O=C(NC(Cc1ccccc1)C(=O)O)c1ccc(-c2ccc(OCc3ccc(Cl)cc3Cl)cc2)cc1 (centres unmarked) [Example 8-9] | C (1 μM<C)
17 | O=C(NC(Cc1ccccc1)C(=O)O)c1ccc(-c2ccc(OCc3ccc(Cl)c(Cl)c3)cc2)cc1 (centres unmarked) [Example 8-10] | B (0.1 μM<B≦1 μM)
18 | O=C(NC(Cc1ccccc1)C(=O)O)c1ccc(-c2ccc(OCc3cccc(Cl)c3Cl)cc2)cc1 (centres unmarked) [Example 8-11] | A (A≦0.1 μM)
19 | O=C(NC(Cc1ccccc1)C(=O)O)c1ccc(-c2ccc(OCc3c(F)cccc3F)cc2)cc1 (centres unmarked) [Example 8-12] | B (0.1 μM<B≦1 μM)
20 | COc1ccccc1COc1ccc(-c2ccc(C(=O)NC(Cc3ccccc3)C(=O)O)cc2)cc1 (centres unmarked) [Example 8-13] | B (0.1 μM<B≦1 μM)
21 | COc1cccc(COc2ccc(-c3ccc(C(=O)NC(Cc4ccccc4)C(=O)O)cc3)cc2)c1 (centres unmarked) [Example 8-14] | A (A≦0.1 μM)
22 | COc1ccc(COc2ccc(-c3ccc(C(=O)NC(Cc4ccccc4)C(=O)O)cc3)cc2)cc1 (centres unmarked) [Example 8-15] | B (0.1 μM<B≦1 μM)
23 | COc1cc(COc2ccc(-c3ccc(C(=O)NC(Cc4ccccc4)C(=O)O)cc3)cc2)cc(OC)c1OC (centres unmarked) [Example 8-16] | C (1 μM<C)
24 | O=C(NC(Cc1ccccc1)C(=O)O)c1ccc(-c2ccc(OCc3ccccc3Cl)cc2)cc1 (centres unmarked) [Example 8-17] | A (A≦0.1 μM)

Row | SMILES | In vitro activity grade
25 | O=C(NC(Cc1ccccc1)C(=O)O)c1ccc(-c2ccc(OCc3ccc(F)cc3F)cc2)cc1 (centres unmarked) [Example 8-18] | A (A≦0.1 μM)
26 | Cc1ccc(COc2ccc(-c3ccc(C(=O)NC(Cc4ccccc4)C(=O)O)cc3)cc2)cc1 (centres unmarked) [Example 8-19] | B (0.1 μM<B≦1 μM)
27 | O=C(NC(Cc1ccccc1)C(=O)O)c1ccc(-c2ccc(OCc3cccc(C(F)(F)F)c3)cc2)cc1 (centres unmarked) [Example 8-20] | B (0.1 μM<B≦1 μM)
28 | O=C(NC(Cc1ccccc1)C(=O)O)c1ccc(-c2ccc(OCc3ccc(C(F)(F)F)cc3)cc2)cc1 (centres unmarked) [Example 8-21] | C (1 μM<C)
29 | O=C(NC(Cc1ccccc1)C(=O)O)c1ccc(-c2ccc(OCc3cccc(Cl)c3)cc2)cc1 (centres unmarked) [Example 8-22] | A (A≦0.1 μM)
30 | COc1cc(COc2ccc(-c3ccc(C(=O)NC(Cc4ccccc4)C(=O)O)cc3)cc2)cc(OC)c1 (centres unmarked) [Example 8-23] | A (A≦0.1 μM)
31 | Cc1ccccc1COc1ccc(-c2ccc(C(=O)NC(Cc3ccccc3)C(=O)O)cc2)cc1 (centres unmarked) [Example 8-24] | A (A≦0.1 μM)
32 | Cc1cc(C)cc(COc2ccc(-c3ccc(C(=O)NC(Cc4ccccc4)C(=O)O)cc3)cc2)c1 (centres unmarked) [Example 8-25] | B (0.1 μM<B≦1 μM)
33 | Cc1ccc(C)c(COc2ccc(-c3ccc(C(=O)NC(Cc4ccccc4)C(=O)O)cc3)cc2)c1 (centres unmarked) [Example 8-26] | B (0.1 μM<B≦1 μM)
34 | Cc1ccc(COc2ccc(-c3ccc(C(=O)NC(Cc4ccccc4)C(=O)O)cc3)cc2)c(C)c1 (centres unmarked) [Example 8-27] | B (0.1 μM<B≦1 μM)
35 | O=C(NC(Cc1ccccc1)C(=O)O)c1ccc(-c2ccc(OCc3cccc([N+](=O)[O-])c3)cc2)cc1 (centres unmarked) [Example 8-28] | A (A≦0.1 μM)
36 | O=C(NC(Cc1ccccc1)C(=O)O)c1ccc(-c2ccc(OCc3ccccc3OC(F)(F)F)cc2)cc1 (centres unmarked) [Example 8-29] | C (1 μM<C)
37 | O=C(NC(Cc1ccccc1)C(=O)O)c1ccc(-c2ccc(OCc3cccc(OC(F)(F)F)c3)cc2)cc1 (centres unmarked) [Example 8-30] | C (1 μM<C)
38 | O=C(NC(Cc1ccccc1)C(=O)O)c1ccc(-c2ccc(OCc3ccc(OC(F)(F)F)cc3)cc2)cc1 (centres unmarked) [Example 8-31] | C (1 μM<C)
39 | O=C(NC(Cc1ccccc1)C(=O)O)c1ccc(-c2ccc(OCc3ccc(Cl)cc3)cc2)cc1 (centres unmarked) [Example 8-32] | B (0.1 μM<B≦1 μM)
40 | O=C(NC(Cc1ccccc1)C(=O)O)c1ccc(-c2ccc(OCC3CCCCC3)cc2)cc1 (centres unmarked) [Example 8-33] | B (0.1 μM<B≦1 μM)
41 | O=C(NC(Cc1ccccc1)C(=O)O)c1ccc(-c2ccc(OCCCn3cccc3)cc2)cc1 (centres unmarked) [Example 8-34] | B (0.1 μM<B≦1 μM)
42 | O=C(NC(Cc1ccccc1)C(=O)O)c1ccc(-c2ccc(OCCc3ccccc3)cc2)cc1 (centres unmarked) [Example 8-35] | A (A≦0.1 μM)
43 | CC(Oc1ccc(-c2ccc(C(=O)NC(Cc3ccccc3)C(=O)O)cc2)cc1)c1ccccc1 (centres unmarked) [Example 8-36] | B (0.1 μM<B≦1 μM)
44 | O=C(NC(Cc1ccccc1)C(=O)O)c1ccc(-c2ccc(OCCCc3ccccc3)cc2)cc1 (centres unmarked) [Example 8-37] | B (0.1 μM<B≦1 μM)
45 | CCCCOc1ccc(-c2ccc(C(=O)NC(Cc3ccccc3)C(=O)O)cc2)cc1 (centres unmarked) [Example 8-38] | B (0.1 μM<B≦1 μM)
46 | Nc1cccc(COc2ccc(-c3ccc(C(=O)NC(Cc4ccccc4)C(=O)O)cc3)cc2)c1 (centres unmarked) [Example 8-39] | A (A≦0.1 μM)
47 | O=C(NC(Cc1ccccc1)C(=O)O)c1ccc(-c2ccc(OCCN3CCCCC3)cc2)cc1 (centres unmarked) [Example 8-40] | C (1 μM<C)

Tested on: not given
Test: not given
Conditions: not given

Row | SMILES | melting point
48 | O=C(NC(Cc1ccccc1)C(=O)O)c1cc(-c2ccc(OCc3ccccc3)cc2)[nH]n1 (centres unmarked) [Example 1-1, 2-{[5-(4-Benzyloxyphenyl)-1H-pyrazole-3-carbonyl]amino}-3-phenylpropionic acid] | 196 to 200 °C
49 | O=C(NC(Cc1ccccc1)C(=O)O)c1ccc(-c2ccc(OCc3ccccc3)cc2)s1 (centres unmarked) [Example 2-1, 2-{[5-(4-Benzyloxyphenyl)thiophene-2-carbonyl]amino}-3-phenyl-propionic acid] | 215 to 216 °C
50 | O=C(NC(Cc1ccccc1)C(=O)[O-])c1ccc(-c2ccc(OCc3ccccc3)nc2)cc1.[Na+] (centres unmarked) [Example 6-1, Sodium 2-[4-(6-benzyloxypyridin-3-yl)benzoylamino]-3-phenylpropionate] | 240 to 242 °C
